Measurements: ChEMBL document CHEMBL2203048, “Synthesis and biological evaluation of a water-soluble derivative of the potent V-ATPase inhibitor archazolid” (Bioorg Med Chem Lett, 2012)
Calls of active or inactive are those of the source. The rule behind the calls is not given here.

Columns and labels:
[1] = target: V-type proton ATPase subunit C (Manduca sexta) (UniProt Q9U5N1); assay: Inhibition of tobacco hornworm V-ATPase c subunit
[2] = target: V-type proton ATPase subunit C (Manduca sexta) (UniProt Q9U5N1); assay: Binding affinity to tobacco hornworm V-ATPase c subunit in 4:4:1 CDCl3:MeOH-d4:D2O by NMR analysis
[3] = Solubility in 0.4 mM OG at 0.5 mM by NMR analysis; format: physicochemical; settings: 500 µM
[4] = Solubility in 50 mM OG at 0.5 mM by NMR analysis; format: physicochemical; settings: 500 µM
[5] = Solubility in 2 mM LMPC at 0.5 mM by NMR analysis; format: physicochemical; settings: 500 µM
[6] = Solubility in 3 mM DPC at 0.5 mM by NMR analysis; format: physicochemical; settings: 500 µM
[7] = Solubility in 4 mM LDAO at 1 mM by NMR analysis; format: physicochemical; settings: 1000 µM
[8] = Solubility in 17 mM DHPC at 1 mM by NMR analysis; format: physicochemical; settings: 1000 µM
[9] = Solubility of the compound in 42:9:49 EtOH-d6:CNCD3:D2O solution at <0.5 mM by NMR analysis; format: physicochemical
[10] = Solubility of the compound in 40:40:1 CDCl3:MeOH-d4:D2O at 1 mM by NMR analysis; format: physicochemical; settings: 1000 µM
[11] = Solubility of the compound in 10:90 MeOH-d4:D2O solution at 0.5 mM by NMR analysis; format: physicochemical; settings: 500 µM
[12] = Solubility of the compound in 5:95 EtOH-d6:D2O solution at 0.5 mM by NMR analysis; format: physicochemical; settings: 500 µM
[13] = Solubility of the compound in 5:95 CNCD3-d6:D2O solution at 1 mM by NMR analysis; format: physicochemical; settings: 1000 µM
[14] = Solubility of the compound in 5:95 EtOH-d6:D2O solution at 1 mM by NMR analysis; format: physicochemical; settings: 1000 µM
[15] = Solubility of the compound in 5:95 MeOH-d4:D2O solution at 0.5 mM by NMR analysis; format: physicochemical; settings: 500 µM
[16] = Solubility of the compound in 10:90 DMSO-d6:D2O solution at 0.5 mM by NMR analysis; format: physicochemical; settings: 500 µM
[17] = Solubility of the compound in 50:50 DMSO-d6:D2O solution at 1 mM by NMR analysis; format: physicochemical; settings: 1000 µM

Chain of V-type proton ATPase subunit C (Manduca sexta) (Q9U5N1 whole entry): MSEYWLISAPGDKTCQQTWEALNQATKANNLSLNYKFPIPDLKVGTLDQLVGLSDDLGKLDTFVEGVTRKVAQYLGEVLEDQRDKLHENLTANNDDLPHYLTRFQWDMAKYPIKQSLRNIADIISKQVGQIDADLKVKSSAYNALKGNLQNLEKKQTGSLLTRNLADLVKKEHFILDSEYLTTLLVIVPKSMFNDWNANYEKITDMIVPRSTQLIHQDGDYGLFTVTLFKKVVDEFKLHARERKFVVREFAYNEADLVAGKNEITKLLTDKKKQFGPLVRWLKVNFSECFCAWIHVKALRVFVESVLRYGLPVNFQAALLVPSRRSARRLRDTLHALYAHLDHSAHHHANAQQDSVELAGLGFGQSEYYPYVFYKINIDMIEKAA

Question: For `C=CCOP(=O)(O)CC(=O)O[C@@H]1/C=C/C(C)=C\C(C)=C/[C@H](C)[C@H](OC(=O)CP(=O)(O)OCC=C)/C=C(\C)C/C=C/C(=O)O[C@H](c2csc([C@H](CC(C)C)OC(=O)NC)n2)[C@@H](C)/C=C/C=C(\C)[C@@H](OC)[C@H]1C`, which inhibition [1] is on record?
Answer: The inhibition was “inactive”.

Question: Which Activity [2] does the source give for `CNC(=O)O[C@@H](CC(C)C)c1nc([C@H]2OC(=O)/C(C)=C/C/C(C)=C/[C@@H](O)[C@@H](C)\C=C(C)/C=C(C)\C=C\[C@@H](O)[C@H](C)[C@H](OC)/C(C)=C/C=C/[C@@H]2C)cs1` [ARCHAZOLID A] here?
Answer: The Activity was “inactive”.

Question: And the solubility [3]?
Answer: Its solubility is “Insoluble”.

Question: And the solubility [4]?
Answer: The solubility was “Insoluble”.

Question: And the solubility [5]?
Answer: Its solubility is “Insoluble”.

Question: And the solubility [6]?
Answer: Its solubility is “Insoluble”.

Question: And the solubility [7]?
Answer: Its solubility is “Insoluble”.

Question: And the solubility [8]?
Answer: The solubility was “Insoluble”.

Question: And the solubility [9]?
Answer: The solubility was “Insoluble”.

Question: And the solubility [10]?
Answer: The solubility was “soluble”.

Question: What about the solubility [11] of the same compound?
Answer: Its solubility is “Insoluble”.

Question: What about the solubility [12] of the same compound?
Answer: Its solubility is “Insoluble”.

Question: And the solubility [13]?
Answer: Its solubility is “Insoluble”.

Question: What about the solubility [14] of the same compound?
Answer: The solubility was “Insoluble”.

Question: What about the solubility [15] of the same compound?
Answer: Its solubility is “Insoluble”.

Question: What about the solubility [16] of the same compound?
Answer: The solubility was “Insoluble”.

Question: And the solubility [17]?
Answer: Its solubility is “Insoluble”.

Question: Which Activity [2] does the source give for `CNC(=O)O[C@@H](CC(C)C)c1nc([C@H]2OC(=O)/C(C)=C/C/C(C)=C/[C@@H](O[C@@H]3O[C@H](CO)[C@@H](O)[C@H](O)[C@H]3O)[C@@H](C)\C=C(C)/C=C(C)\C=C\[C@@H](O)[C@H](C)[C@H](OC)/C(C)=C/C=C/[C@@H]2C)cs1` here?
Answer: The Activity was “inactive”.
